The test system of one data set is CEM-SS (Homo sapiens). As to the kind of experiment: Cytotoxicity against human CEM-SS cells.
The subject of data set [1] is Human immunodeficiency virus 1. Nature of the data set: Antiviral activity against HIV1 infected in human CEM-SS cells assessed as protection against virus-induced cytopathic effect by XTT method. It is filed as functional, organism-based. To be noted: Human immunodeficiency virus 1, CEM-SS. In general terms: Damage to the host cells serves as the signal in cytopathic effect assays.

A further data set relates to Helicoverpa armigera. As to the kind of experiment: Insecticidal activity against Helicoverpa armigera assessed as growth inhibition. It is filed as functional, organism-based.
Data set [2] is described as follows: Hemolytic activity in human type A RBC assessed as hemolysis after 1 hr by microtitre plate. It is filed as ADME, cell-based. To be noted: Erythrocyte.
Data set [3] can be described thus: Hemolytic activity in human type A RBC assessed as concentration required to cause 75% hemolysis after 1 hr by microtitre plate. It is filed as ADME, cell-based. To be noted: erythrocyte.
The next data set has as its system Helicoverpa punctigera. Nature of the data set: Insecticidal activity against Helicoverpa punctigera assessed as inhibition of development of larvae at 0.825 umol/g after 16 days. It is filed as functional, organism-based.

Calls of active or inactive are those of the source. No cut-off for these calls is given here. Where a SMILES comes first, the peptide text is derived from it. Bridges are numbered along the chain shown (N, C = ends).

Usually IC50 stands for the concentration at which inhibition is half-maximal. The EC50 is the concentration at which the effect is half-maximal. Turning to `CC(C)C[C@@H]1NC(=O)[C@H](CC(C)C)NC(=O)[C@@H]2CSSC[C@@H]3NC(=O)[C@H]([C@@H](C)O)NC(=O)[C@@H]4CSSC[C@H](NC(=O)[C@H](CC(N)=O)NC(=O)[C@H](CC(C)C)NC(=O)[C@H](C(C)C)NC(=O)[C@H](CO)NC(=O)CNC(=O)[C@H](CC(=O)O)NC(=O)[C@H](CCCCN)NC(=O)[C@H]([C@@H](C)O)NC(=O)[C@H](CSSC[C@H](NC(=O)[C@H]([C@@H](C)O)NC(=O)CNC1=O)C(=O)N[C@@H](Cc1ccc(O)cc1)C(=O)N[C@@H]([C@@H](C)O)C(=O)N[C@@H]([C@@H](C)O)C(=O)NCC(=O)N4)NC(=O)[C@H](C(C)C)NC(=O)[C@H](CCCNC(=N)N)NC(=O)[C@H](Cc1ccc(O)cc1)NC(=O)[C@H](CCCCN)NC(=O)[C@H](CC(N)=O)NC3=O)C(=O)NCC(=O)N[C@@H](CCC(=O)O)C(=O)N[C@@H]([C@@H](C)O)C(=O)N2` [KALATA B8] (cyclo(CGETCLLGTCYTTGCTCNKYRVCTKDGSVLN); disulfide 1-15, 5-17, 10-23), the IC50 in the data set with CEM-SS (Homo sapiens) turned out to be 3.5 µM. In addition, in data set [1], the 50% effective concentration (EC50) came to 2.5 µM.

As for `CC[C@H](C)[C@@H]1NC(=O)[C@@H]2CCCN2C(=O)[C@H](Cc2c[nH]c3ccccc23)NC(=O)[C@H]([C@@H](C)O)NC(=O)[C@@H]2CSSC[C@@H]3NC(=O)[C@](C)([C@@H](C)O)NC(=O)[C@H](CCC(=O)O)NC(=O)CNC(=O)[C@@H]4CSSC[C@H](NC(=O)CNC(=O)[C@@H]5CCCN5C(=O)[C@H]([C@@H](C)O)NC(=O)[C@H](CC(N)=O)NC(=O)[C@H](CSSC[C@H](NC1=O)C(=O)N[C@@H]([C@@H](C)O)C(=O)N[C@@H](CCCNC(=N)N)C(=O)N[C@@H](CC(=O)O)C(=O)NCC(=O)N[C@@H](CC(C)C)C(=O)N1CCC[C@H]1C(=O)N[C@@H](C(C)C)C(=O)N4)NC(=O)[C@H]([C@@H](C)O)NC(=O)CNC(=O)CNC(=O)[C@H](Cc1ccccc1)NC3=O)C(=O)N[C@@H](CO)C(=O)N2`, the outcome in the data set on Helicoverpa armigera was Active.

Regarding `CC[C@H](C)[C@@H]1NC(=O)[C@H](C)NC(=O)[C@H](C)NC(=O)[C@H](CO)NC(=O)[C@H]([C@@H](C)CC)NC(=O)[C@@H]2CSSC[C@@H]3NC(=O)[C@H](C(C)C)NC(=O)[C@H](CCCCN)NC(=O)[C@H](CO)NC(=O)[C@H](CCCCN)NC(=O)[C@@H]4CSSC[C@H](NC(=O)[C@H](CO)NC(=O)[C@H](CCC(=O)O)NC(=O)CNC(=O)[C@H](CSSC[C@H](NC(=O)CNC1=O)C(=O)N[C@@H](CO)C(=O)N4)NC(=O)[C@@H]1CCCN1C(=O)[C@H]([C@@H](C)CC)NC(=O)CNC(=O)[C@H](CC(N)=O)NC(=O)[C@H](CCCNC(=N)N)NC(=O)[C@H](Cc1ccc(O)cc1)NC3=O)C(=O)N[C@@H](C(C)C)C(=O)N[C@@H](Cc1c[nH]c3ccccc13)C(=O)N[C@@H]([C@@H](C)CC)C(=O)N1CCC[C@H]1C(=O)N2` [CYCLOVIOLACIN O13] (cyclo(AAIGCSCKSKVCYRNGIPCGESCVWIPCIS); disulfide 5-19, 7-23, 12-28), the half-maximal inhibitory concentration (IC50) in data set [2] worked out at 11 µM.

Take `CC(C)C[C@@H]1NC(=O)CNC(=O)[C@H](CC(N)=O)NC(=O)[C@H](Cc2cnc[nH]2)NC(=O)[C@H]([C@@H](C)O)NC(=O)[C@@H]2CSSC[C@@H]3NC(=O)[C@H]([C@@H](C)O)NC(=O)CNC(=O)CNC(=O)[C@H](Cc4ccccc4)NC(=O)[C@@H]4CSSC[C@H](NC(=O)[C@H]([C@@H](C)O)NC(=O)[C@H](CSSC[C@H](NC(=O)[C@H]([C@@H](C)O)NC(=O)[C@@H]5CCCN5C1=O)C(=O)NCC(=O)N[C@@H](CCC(=O)O)C(=O)N[C@@H]([C@@H](C)O)C(=O)N4)NC(=O)CNC(=O)[C@@H]1CCCN1C(=O)[C@H]([C@@H](C)O)NC(=O)[C@H](CC(N)=O)NC3=O)C(=O)N[C@@H](CC(=O)O)C(=O)N1CCC[C@H]1C(=O)N[C@@H](Cc1c[nH]c3ccccc13)C(=O)N1CCC[C@H]1C(=O)N[C@@H](C(C)C)C(=O)N2` [CYCLOVIOLACIN O24] (cyclo(CDPWPVCTHNGLPTCGETCFGGTCNTPGCT); disulfide 1-19, 7-24, 15-29): the Activity in data set [3] came out at 25 µM.

Turning to `CC(C)C[C@@H]1NC(=O)CNC(=O)[C@H](CC(N)=O)NC(=O)[C@H](CCCNC(=N)N)NC(=O)[C@H]([C@@H](C)O)NC(=O)[C@H](CS)NC(=O)[C@H](C(C)C)NC(=O)[C@@H]2CCCN2C(=O)[C@H](CCC(=O)O)NC(=O)[C@H](CO)NC(=O)[C@H](CS)NC(=O)[C@H]([C@@H](C)O)NC(=O)[C@H](CS)NC(=O)CNC(=O)[C@@H]2CCCN2C(=O)[C@H]([C@@H](C)O)NC(=O)[C@H](CC(N)=O)NC(=O)[C@H](CS)NC(=O)[C@H]([C@@H](C)O)NC(=O)CNC(=O)CNC(=O)[C@H](C(C)C)NC(=O)[C@H](CS)NC(=O)[C@H]([C@@H](C)O)NC(=O)[C@H](CCC(=O)O)NC(=O)CNC(=O)[C@H](CS)NC(=O)[C@H](C(C)C)NC(=O)[C@@H]2CCCN2C1=O` [KALATA B1], the result in the data set on Helicoverpa punctigera was Active.

(Values after ChEMBL document CHEMBL1799917, “Isolation, sequencing, and structure-activity relationships of cyclotides” (J Nat Prod, 2010).)
